ChEMBL document CHEMBL1201862, “PubChem BioAssay data set” (2004)
Active and inactive are the calls of the source.

Experiments:
Escherichia coli = assay: microbe, parasite or virus in culture
P388/ADR = assay: cells; type: functional; settings: Mus musculus
P388 = assay: cells; type: functional; settings: Mus musculus
SN12K1 = assay: cells; type: functional; settings: Homo sapiens
[1] = THP-1 cell cytotoxicity, dose response, cytotoxicity control for non-replicating M. tuberculosis project (AID 489025); type: functional
cells [2] = type: functional
[3] = Vero E6 cell cytotoxicity, dose response, cytotoxicity control for non-replicating M. tuberculosis project, secondary assay (AID 492998); type: functional, VeroE6; settings: Vero C1008
Cytochrome P450 2C9 = Cytochrome P450 2C9 (Homo sapiens, UniProt P11712)
Chain of Cytochrome P450 2C9 (P11712 whole entry): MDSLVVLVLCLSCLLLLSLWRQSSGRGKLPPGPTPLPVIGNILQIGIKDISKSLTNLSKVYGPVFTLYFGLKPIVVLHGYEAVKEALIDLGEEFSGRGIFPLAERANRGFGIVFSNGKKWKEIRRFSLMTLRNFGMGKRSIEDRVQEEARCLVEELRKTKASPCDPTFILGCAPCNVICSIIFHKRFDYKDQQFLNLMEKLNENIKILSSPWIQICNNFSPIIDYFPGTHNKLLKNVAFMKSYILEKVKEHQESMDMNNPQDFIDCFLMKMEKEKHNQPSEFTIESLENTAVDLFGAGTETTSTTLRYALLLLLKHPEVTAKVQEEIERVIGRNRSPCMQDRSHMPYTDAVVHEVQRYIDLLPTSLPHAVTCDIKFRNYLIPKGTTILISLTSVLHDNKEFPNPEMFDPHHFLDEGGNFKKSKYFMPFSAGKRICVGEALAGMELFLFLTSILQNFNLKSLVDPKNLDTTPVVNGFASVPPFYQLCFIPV

Cytochrome P450 3A4 [4] = target: T1, Cytochrome P450 3A4 (Homo sapiens, UniProt P08684)
T1 sequence (P08684 whole entry): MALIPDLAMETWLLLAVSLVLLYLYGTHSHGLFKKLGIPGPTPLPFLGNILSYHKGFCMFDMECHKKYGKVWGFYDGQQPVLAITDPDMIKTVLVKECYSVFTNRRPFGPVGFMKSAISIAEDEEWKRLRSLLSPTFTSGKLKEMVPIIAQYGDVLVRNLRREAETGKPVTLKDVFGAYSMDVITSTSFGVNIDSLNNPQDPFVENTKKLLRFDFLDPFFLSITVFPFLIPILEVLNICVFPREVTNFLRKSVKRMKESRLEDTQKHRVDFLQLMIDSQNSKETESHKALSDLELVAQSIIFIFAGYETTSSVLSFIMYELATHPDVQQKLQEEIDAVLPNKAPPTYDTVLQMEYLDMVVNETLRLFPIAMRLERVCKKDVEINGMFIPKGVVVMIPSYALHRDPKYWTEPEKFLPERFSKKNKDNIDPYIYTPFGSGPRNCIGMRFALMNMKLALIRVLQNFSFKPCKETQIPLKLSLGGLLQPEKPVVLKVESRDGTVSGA

Cytochrome P450 3A4 [5] = target: T1, Cytochrome P450 3A4; settings: Potency
[6] = microbe, parasite or virus in culture; type: functional; settings: Mycobacterium tuberculosis
BJ [7] = assay: cells; type: functional, cell-based; settings: Homo sapiens
BJ [8] = assay: BJ-TERT fibroblast viability loss – cell-based, RAS-independent, luminescence, dose response (AID 1933); type: functional; settings: Homo sapiens
[9] = DRD fibroblast viability loss – cell-based, non-viral oncogenic, luminescence, dose response (AID 1934); type: functional; settings: Homo sapiens
BJ [10] = assay: BJ-TERT-LT-ST fibroblast viability loss – cell-based, RAS-independent, luminescence, dose response (AID 1935); type: functional; settings: Homo sapiens;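 also: BJ fibroblasts immortalized with TERT plus LT and ST oncogenes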
[11] = HEK-293T viability loss after treatment – luminescence, T-cell screen hits, cytotoxicity control for TCR NF-kB inhibitor project, dose response (AID 489026); type: functional, cell-based;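 also: cells exposed to compound about 14 hours before the viability readout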
[12] = Luminescence Cell-Based Dose Retest to Confirm Inhibitors of Cancer Stem Cells. [Related pubchem assays (depositor defined):AID2717, AID2721]; type: functional; settings: Homo sapiens
[13] = luciferase reporter signal suppression in cells – H4 neuroglioma cells, luminescence, dose response (AID 1990); type: functional, cell-based
[14] = Luminescence Cell-Based Dose Response HTS to Identify Inhibitors of 5'UTR Stem-Loop Driven Prion Protein mRNA Translation in H4 Neuroglioblastoma Cells. [Related pubchem assays: 1827 (Project Summary), 1813 (Primary HTS)]; type: functional
[15] = alpha-synuclein stem-loop luciferase translation blockers – H4 neuroglioma cells, luminescence, confirmation (AID 1988); type: functional, cell-based
Cytochrome P450 2D6 = Cytochrome P450 2D6 (Homo sapiens, UniProt P10635);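 also: CYP2D6 member of a cytochrome P450 panel assay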
Chain of Cytochrome P450 2D6 (P10635 whole entry): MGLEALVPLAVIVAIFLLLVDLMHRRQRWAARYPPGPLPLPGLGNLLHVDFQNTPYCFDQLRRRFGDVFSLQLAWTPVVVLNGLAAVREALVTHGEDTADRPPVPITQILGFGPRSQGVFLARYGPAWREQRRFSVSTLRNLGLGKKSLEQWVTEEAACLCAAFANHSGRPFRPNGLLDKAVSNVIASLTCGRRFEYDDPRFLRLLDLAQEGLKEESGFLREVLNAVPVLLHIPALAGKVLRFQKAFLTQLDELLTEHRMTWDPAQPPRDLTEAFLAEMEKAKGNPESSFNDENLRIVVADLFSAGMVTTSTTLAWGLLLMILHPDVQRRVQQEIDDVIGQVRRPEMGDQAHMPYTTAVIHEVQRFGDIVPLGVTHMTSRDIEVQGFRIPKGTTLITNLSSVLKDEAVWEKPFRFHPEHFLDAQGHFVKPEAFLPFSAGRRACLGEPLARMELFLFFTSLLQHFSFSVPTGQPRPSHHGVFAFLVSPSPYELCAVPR

[16] = reduction of Shn3 3'UTR-driven luciferase in osteoblasts – cell-based, Clone20 osteoblasts, firefly luciferase, cherry-picked, dose response (AID 624132); type: functional;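 also: firefly luciferase luminescence from reporter carrying the Shn3 3'UTR in osteoblasts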
[17] = non-specific 3'UTR reporter inhibition in Clone20-Shn3RL – cell-based, Renilla luciferase, cherry-picked, counter-screen for Shn3 inhibitor project, dose response (AID 624133); type: functional
INS1 = assay: INS-1E survival protection against cytokine death – cell-based, luminescence, retest, dose response (AID 449756); type: functional; settings: Rattus norvegicus;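 also: cell death triggered by IL-1 beta plus TNF-alpha plus IFN-gamma mixture; protective hits raise ATP signal compared with cytokine alone wells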
[18] = loss of viability in HepG2 cells – cell-based, CellTiter-Glo, cherry-picked, cytotoxicity control for Shn3 inhibitor project, dose response (AID 624134); type: functional
Protein Wnt-3a = Protein Wnt-3a (Mus musculus, UniProt P27467); assay: antagonism of Wnt3a pathway luciferase reporter – Wnt-LIGHT cells, luminescence, selectivity assay for Gli-SUFU antagonist project, dose response (AID 651570); type: functional; settings: read-out: IC50_Mean;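 also: Wnt-LIGHT reporter cells stimulated with conditioned medium from Wnt3a-producing cells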
Chain of Protein Wnt-3a (P27467 whole entry): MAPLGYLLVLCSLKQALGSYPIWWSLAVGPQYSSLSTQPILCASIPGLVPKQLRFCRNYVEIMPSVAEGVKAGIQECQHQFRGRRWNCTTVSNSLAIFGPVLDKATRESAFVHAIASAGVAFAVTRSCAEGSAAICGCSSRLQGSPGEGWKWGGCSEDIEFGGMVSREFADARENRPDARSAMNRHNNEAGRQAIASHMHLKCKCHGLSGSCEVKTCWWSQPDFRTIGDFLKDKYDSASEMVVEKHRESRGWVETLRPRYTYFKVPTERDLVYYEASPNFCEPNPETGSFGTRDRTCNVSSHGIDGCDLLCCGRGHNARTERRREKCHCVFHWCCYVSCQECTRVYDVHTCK

Streptococcus = assay: GAS UMAA2166 growth inhibition – luminescence, BacTiterGlo, counter-screen for streptokinase expression inhibitor project, dose response (AID 1915); type: functional, organism-based;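 also: potency for reduction of bacterial viability or growth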
[19] = viability loss in THP-1 monocytes – THP-1 cells, cytotoxicity control for Vif-APOBEC3G degradation inhibitor project, dose response (AID 1117359); type: functional; settings: THP-1
Streptokinase A = target: T2, Streptokinase A (Streptococcus pyogenes serotype M1, UniProt P10520); assay: viability-normalized secreted streptokinase activity reduction – plasminogen activation absorbance, OD405, dose response (AID 1914); type: functional, Streptococcus pyogenes M1 GAS;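 also: secreted streptokinase activity via plasminogen activation per viability signal from cell pellet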
T2 sequence (P10520 whole entry): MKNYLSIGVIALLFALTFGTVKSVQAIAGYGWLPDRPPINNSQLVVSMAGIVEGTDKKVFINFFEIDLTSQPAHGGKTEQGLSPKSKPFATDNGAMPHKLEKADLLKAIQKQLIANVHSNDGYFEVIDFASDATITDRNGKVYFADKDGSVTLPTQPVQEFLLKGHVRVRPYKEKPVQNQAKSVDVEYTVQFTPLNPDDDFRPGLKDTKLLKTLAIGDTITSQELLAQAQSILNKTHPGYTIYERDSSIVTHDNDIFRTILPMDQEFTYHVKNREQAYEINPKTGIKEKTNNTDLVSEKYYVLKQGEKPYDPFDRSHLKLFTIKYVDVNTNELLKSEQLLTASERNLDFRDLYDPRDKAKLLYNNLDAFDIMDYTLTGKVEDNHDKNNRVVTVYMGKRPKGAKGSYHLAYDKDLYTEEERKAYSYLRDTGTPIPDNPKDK

[20] = test system: Streptococcus sp. 'group A'; assay: Streptococcus pyogenes SK(-)GAS viability under kanamycin – luminescence, BacTiterGlo, confirmation, counter-screen for streptokinase expression inhibitor project, dose response (AID 1900); type: functional, organism-based
Cytochrome P450 2C19 = Cytochrome P450 2C19 (Homo sapiens, UniProt P33261); assay: Cytochrome panel assay with activity outcomes. Panel member name: p450-cyp2c19 Compounds with AC50 equal or less than 10 uM are considered active; type: functional; settings: read-out: AC50
Chain of Cytochrome P450 2C19 (P33261 whole entry): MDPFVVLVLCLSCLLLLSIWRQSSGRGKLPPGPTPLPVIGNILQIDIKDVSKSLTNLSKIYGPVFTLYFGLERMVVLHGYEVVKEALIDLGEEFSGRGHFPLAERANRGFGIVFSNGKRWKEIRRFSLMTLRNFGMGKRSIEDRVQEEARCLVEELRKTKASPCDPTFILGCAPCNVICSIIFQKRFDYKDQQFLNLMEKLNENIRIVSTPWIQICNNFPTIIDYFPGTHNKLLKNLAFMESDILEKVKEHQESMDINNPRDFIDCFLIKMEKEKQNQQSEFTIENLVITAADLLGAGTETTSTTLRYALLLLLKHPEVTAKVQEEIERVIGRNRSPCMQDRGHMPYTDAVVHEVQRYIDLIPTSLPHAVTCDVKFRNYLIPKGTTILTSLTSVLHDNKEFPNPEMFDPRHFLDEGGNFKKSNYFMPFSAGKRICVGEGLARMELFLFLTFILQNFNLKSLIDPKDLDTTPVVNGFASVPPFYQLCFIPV

[21] = target: T3, Heat shock factor protein 1 (Mus musculus, UniProt P38532); assay: decrease of HSF1-responsive luciferase luminescence – cell-based, NIH3T3, dose retest, confirmation (AID 2382); type: functional;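 also: NIH3T3 fibroblasts with HSF1-driven luciferase reporter stressed by proteasome inhibitor MG132; luminescence from HSF1-driven luciferase expression after 8 hours of MG132 stress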
T3 sequence (P38532 whole entry): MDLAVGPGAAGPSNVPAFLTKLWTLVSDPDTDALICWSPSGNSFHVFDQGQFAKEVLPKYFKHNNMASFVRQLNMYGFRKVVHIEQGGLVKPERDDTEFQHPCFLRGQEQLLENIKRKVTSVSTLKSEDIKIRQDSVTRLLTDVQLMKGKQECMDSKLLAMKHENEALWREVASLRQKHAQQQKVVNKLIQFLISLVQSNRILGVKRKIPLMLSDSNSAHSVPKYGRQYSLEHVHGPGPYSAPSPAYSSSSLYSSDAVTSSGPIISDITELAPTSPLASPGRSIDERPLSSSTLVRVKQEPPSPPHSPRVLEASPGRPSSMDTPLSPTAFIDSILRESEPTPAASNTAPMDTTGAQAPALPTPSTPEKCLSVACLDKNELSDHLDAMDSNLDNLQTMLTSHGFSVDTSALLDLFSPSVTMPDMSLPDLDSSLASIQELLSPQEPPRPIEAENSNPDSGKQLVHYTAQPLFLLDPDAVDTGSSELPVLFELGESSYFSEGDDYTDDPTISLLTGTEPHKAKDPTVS

[22] = NIH3T3 cell viability loss – ATP luminescence, mouse fibroblasts, counter-screen, dose response (AID 2010); type: functional, cell-based;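 also: cells exposed to compound for about 90 hours before reading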
[23] = Trypanosoma cruzi growth suppression in host cells – NIH3T3 host cells, beta-gal luminescence, confirmation (AID 2044); type: functional, cell-based;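 also: intracellular parasites grown in NIH/3T3 mouse fibroblasts as host cells; luminescent beta-galactosidase reporter signal from transgenic T. cruzi replicating inside host cells; inhibitors lower the luminescence signal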
cells [24] = type: functional, cell-based
cells [25] = type: functional, cell-based; remark: listed apart in the source

CC(=O)c1cc(CN2CCN(C3CCCCC3)C(CCO)C2)cs1 (stereo unspecified)
AC50 (Escherichia coli): 27.7 µM (active)

COc1ccc(O)c(C#N)c1C#N.COc1ccc(OC)c(C#N)c1C#N
GI50 (P388/ADR): > 100 µM (inactive) | GI50 (P388): > 100 µM (inactive) | GI50 (SN12K1): > 100 µM (inactive)

Brc1ccc2[nH]c3c(C4=NCCC4)nccc3c2c1
GI50 (P388/ADR): 9.57 µM (inactive) | GI50 (P388): 9.51 µM (inactive) | GI50 (SN12K1): 9.98 µM (inactive)

C#CCN1CCN(C(=S)N/N=C(\C)c2ccccn2)CC1
GI50 (P388/ADR): < 0.01 µM (active) | GI50 (P388): < 0.01 µM (active) | GI50 (SN12K1): 0.01 µM (active)

O=C(CCNc1ccc(F)cc1)c1ccco1
CC50 [1]: > 40 µM (active) | IC50 (cells [2]): 13.6 µM (active) | CC50 [3]: 17.9 µM (active)

O=C(c1ccco1)N1CCC2(CC1)CN(c1ccccc1)C2
AC50 (Cytochrome P450 2C9): 25.1 µM (inconclusive) | AC50 (Cytochrome P450 3A4 [4]): inconclusive

Clc1cccc(C(Cl)(Cl)Cl)n1 [NITRAPYRIN]
AC50 (Cytochrome P450 3A4 [5]): 12.6 µM (inconclusive)

CC(C)=CC1C(C(=O)O)C1(C)C (stereo unspecified) [CHRYSANTHEMIC ACID]
GI50 (P388/ADR): 488 µM (inactive) | GI50 (P388): > 750 µM (inactive) | GI50 (SN12K1): > 750 µM (inactive)

CCOc1ccc(C(=O)CCN2CCCCCC2)cc1
CC50 [1]: > 40 µM (active) | IC50 (cells [2]): 17.2 µM (active) | CC50 [3]: > 20 µM (active) | CC50 [6]: > 40 µM (active)

Cc1ccsc1/C=N/NC(=O)c1cc(-c2ccncc2)nc2ccccc12
EC50 (BJ [7]): 2.88 µM (active) | EC50 (BJ [8]): 2.93 µM (inconclusive) | EC50 [9]: 2.94 µM (active) | EC50 (BJ [10]): 4.22 µM (inconclusive) | IC50 [11]: 47.1 µM (inactive) | AC50 [12]: 0.168 µM (active)

CC(=O)OC1CCC23CC1(C)CCC2C(C)(C)CC3OC(C)=O (stereo unspecified) [CLOVANEDIOL DIACETATE]
AC50 (Cytochrome P450 3A4 [5]): 15.8 µM (inconclusive)

Clc1ccc(CSc2nncn2-c2ccc3c(c2)OCCO3)cc1
EC50 [13]: > 120 µM (not active) | EC50 [14]: > 120 µM (not active) | IC50 [11]: > 80 µM (inactive) | EC50 [15]: > 120 µM (not active)

CCCCS(=N)(=O)CCC(N)C(=O)O (stereo unspecified) [BUTHIONINE SULFOXIMINE]
AC50 (Cytochrome P450 3A4 [5]): 20 µM (inconclusive)

O=C(CN1C(=O)NC2(CCCCC2)C1=O)NCc1cccs1
AC50 (Escherichia coli): 34.2 µM (active)

O=C(c1cccc(F)c1)N1CCC2(CC1)CCN(c1ccc(-c3ccccc3)cc1)CC2
AC50 (Cytochrome P450 3A4 [4]): inconclusive | AC50 (Cytochrome P450 2D6): 10 µM (inconclusive)

O=C(NNc1ccnc2cc(Cl)ccc12)C1CCCCC1
AC50 [16]: < 0.26 µM (active) | AC50 [17]: 1.39 µM (active) | AC50 (INS1): 1.42 µM (active) | AC50 [18]: 0.409 µM (active) | IC50 [11]: > 80 µM (inactive)

Cn1c(=O)c(-c2cc(F)cc(F)c2)nc2cnc(Oc3ccccc3)nc21
AC50 (Cytochrome P450 2C9): 20 µM (inconclusive) | AC50 (Cytochrome P450 3A4 [4]): inconclusive

O=C(Nc1cccc(C(F)(F)F)c1)C1CCN(S(=O)(=O)c2ccc(N3CCCC3=O)cc2)CC1
IC50 (Protein Wnt-3a): 6.98 µM (active)

Cc1nn(-c2ccccc2)c2sc(C(=O)N3CCc4ccccc4C3)cc12
EC50 (Streptococcus): 14.6 µM (active) | CC50 [19]: > 40 µM (active) | EC50 (Streptokinase A): > 150 µM (not active) | EC50 [20]: 4.55 µM (active)

C[C@@H]1CN(c2c(F)c(F)c3c(=O)c(C(=O)O)cn(C4CC4)c3c2F)C[C@H](C)N1 [ORBIFLOXACIN]
AC50 (Escherichia coli): 0.657 µM (active)

COc1ccc(CCN2C(=O)CC(NNC(=O)c3ccc(F)cc3)C2=O)cc1OC (stereo unspecified)
AC50 (Escherichia coli): 20.9 µM (active)

CNC(=O)OCc1c(CO)nc(SC)n1C
GI50 (P388/ADR): > 100 µM (inactive) | GI50 (P388): > 100 µM (inactive) | GI50 (SN12K1): > 100 µM (inactive)

Nc1ccc(Cl)cc1N
AC50 (Cytochrome P450 3A4 [5]): 7.94 µM (inconclusive)

CCC(C)(NC(=O)c1ccccn1)C(=O)NC1CCCCC1 (stereo unspecified)
AC50 (Cytochrome P450 2C9): 17.8 µM (inconclusive) | AC50 (Cytochrome P450 2C19): 10 µM (inconclusive) | AC50 (Cytochrome P450 3A4 [4]): inconclusive | EC50 [21]: > 195 µM (not active)

CCCCC/C=C\C/C=C\CCCCCCCC(=O)O [LINOLEIC ACID]
AC50 (Cytochrome P450 3A4 [5]): 31.6 µM (inconclusive)

NN
GI50 (P388/ADR): 68.5 µM (inactive) | GI50 (P388): 105 µM (inactive) | GI50 (SN12K1): 96.8 µM (inactive)

c1ccc(CSc2ccc(-c3ccccn3)nn2)cc1
CC50 [1]: 14.2 µM (active) | EC50 [22]: > 30 µM (not active) | EC50 [23]: 1.99 µM (active) | EC50 (cells [24]): 85.6 µM (active) | IC50 (cells [2]): 15.1 µM (active) | EC50 (cells [25]): 28.4 µM (active) | AC50 (INS1): 5.5 µM (active) | CC50 [3]: 12 µM (active) | CC50 [6]: 36.9 µM (active)

CN(CCOc1ccc(Cl)cc1)C(=O)c1cccc(S(=O)(=O)N2CCN(c3ccc(F)cc3)CC2)c1
IC50 (Protein Wnt-3a): 8.36 µM (active) | AC50 [16]: 1.77 µM (active) | AC50 [17]: 6.21 µM (active) | AC50 [18]: 2.46 µM (active)

O=C(O)c1ccccc1/N=C/c1ccc(N(CCCl)CCCl)cc1
GI50 (P388/ADR): 24.8 µM (inactive) | GI50 (P388): 19.2 µM (inactive) | GI50 (SN12K1): > 100 µM (inactive)

CCCn1c(C)nc2c(NC3CCN(Cc4ccccc4)C3)nc(C)nc21 (stereo unspecified)
AC50 (Cytochrome P450 3A4 [5]): 15.8 µM (inconclusive)
